# Assay results published in ChEMBL document CHEMBL1137593, “Identification and optimisation of a series of substituted 5-pyridin-2-yl-thiophene-2-hydroxamic acids as potent histone deacetylase (HDAC) inhibitors” (Bioorg Med Chem Lett, 2007).
# Tested on: not listed separately
# Assay: AUC after i.p. dosing at 5 mg kg-1
# Assay type: ADME, organism-based
# Parameters: dose 5 mg kg-1, route intraperitoneal
# Conditions: mouse, plasma, ip
row,AUC [ng·h/mL],SMILES
1,1250,O=C(NO)c1ccc(-c2ccc(CNCc3ccccc3)cn2)s1
2,7200,O=C(NO)c1ccc(-c2ccn(CCNCc3ccc4c(c3)OCO4)n2)s1
3,600,O=C(CCCCCCC(=O)Nc1ccccc1)NO [VORINOSTAT]

# Target: CYP2D6 (Homo sapiens, UniProt P10635)
# Assay: Percent inhibition of CYP450 2D6 at 1uM concentration
# Assay type: ADME
# Conditions: not given
# CYP2D6, sequence (P10635 whole entry): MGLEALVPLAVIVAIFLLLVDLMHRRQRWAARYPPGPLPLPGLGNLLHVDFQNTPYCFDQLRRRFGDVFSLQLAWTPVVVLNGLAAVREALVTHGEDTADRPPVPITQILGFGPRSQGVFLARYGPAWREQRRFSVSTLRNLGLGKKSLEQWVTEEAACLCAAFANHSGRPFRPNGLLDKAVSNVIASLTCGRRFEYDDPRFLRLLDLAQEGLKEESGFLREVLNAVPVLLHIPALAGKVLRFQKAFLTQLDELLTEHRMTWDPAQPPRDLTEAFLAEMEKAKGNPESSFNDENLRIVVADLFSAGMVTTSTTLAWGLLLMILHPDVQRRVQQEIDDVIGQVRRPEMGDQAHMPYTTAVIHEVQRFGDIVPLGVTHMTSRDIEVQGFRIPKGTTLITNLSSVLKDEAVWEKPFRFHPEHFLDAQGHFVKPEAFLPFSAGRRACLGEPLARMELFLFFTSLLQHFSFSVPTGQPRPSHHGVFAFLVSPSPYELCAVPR
row,inhibition at 1 µM [%],SMILES
1,1,O=C(NO)c1ccc(-c2ccc(CNCc3ccccc3)cn2)s1
2,8,O=C(NO)c1ccc(-c2ccn(CCNCc3ccc4c(c3)OCO4)n2)s1
3,8,O=C(CCCCCCC(=O)Nc1ccccc1)NO [VORINOSTAT]

# Tested on: not listed separately
# Assay: (§1) AUC after oral dosing at 5 mg kg-1
# Assay type: ADME, organism-based
# Parameters: dose 5 mg kg-1, route oral
# Conditions: rat, plasma
row,AUC [ng·h/mL],SMILES
1,3300,O=C(NO)c1ccc(-c2ccc(CNCc3ccccc3)cn2)s1
2,100,O=C(NO)c1ccc(-c2ccn(CCNCc3ccc4c(c3)OCO4)n2)s1
3,400,O=C(CCCCCCC(=O)Nc1ccccc1)NO [VORINOSTAT]

# Tested on: not listed separately
# Assay: as §1
# Assay type: ADME, organism-based, Plasma
# Parameters: dose 5 mg kg-1, route oral
# Conditions: mouse, plasma
row,AUC [ng·h/mL],SMILES
1,360,O=C(NO)c1ccc(-c2ccc(CNCc3ccccc3)cn2)s1
2,200,O=C(CCCCCCC(=O)Nc1ccccc1)NO [VORINOSTAT]

# Tested on: Mus musculus
# Assay: as §1
# Assay type: ADME, organism-based, Plasma
# Parameters: dose 5 mg kg-1, route oral
# Conditions: in vivo
row,AUC [ng·h/mL],SMILES
1,900,O=C(NO)c1ccc(-c2ccn(CCNCc3ccc4c(c3)OCO4)n2)s1

# Tested on: HCT-116;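 further: inhibition of HCT116 cell growth as proliferation read-out, each value averaged over two experiments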
# Assay: cells
# Assay type: functional, cell-based
# Conditions: Homo sapiens
# Description: Inhibition of HCT116 cell proliferation (mean of two experiments)
row,IC50 [µM],SMILES
1,0.18,O=C(NO)c1ccc(-c2ccc(CNCCc3c[nH]c4ccccc34)cn2)s1
2,0.09,O=C(NO)c1ccc(-c2ccc(CNCc3ccc4c(c3)OCCO4)cn2)s1
3,0.07,O=C(NO)c1ccc(-c2ccc(CNCc3ccc4c(c3)OCO4)cn2)s1
4,0.11,O=C(NO)c1ccc(-c2ccc(CNCc3ccccc3)cn2)s1
5,0.1,O=C(NO)c1ccc(-c2ccc(CNCCc3ccccc3F)cn2)s1
6,0.11,O=C(NO)c1ccc(-c2ccc(CCNCc3ccc4c(c3)OCO4)cn2)s1
7,0.08,COc1ccccc1CCNCc1ccc(-c2ccc(C(=O)NO)s2)nc1

# Target: CYP2C9 (Homo sapiens, UniProt P11712)
# Assay: Percent inhibition of CYP450 2C9 at 1 uM concentration
# Assay type: ADME
# Conditions: not given
# CYP2C9, sequence (P11712 whole entry): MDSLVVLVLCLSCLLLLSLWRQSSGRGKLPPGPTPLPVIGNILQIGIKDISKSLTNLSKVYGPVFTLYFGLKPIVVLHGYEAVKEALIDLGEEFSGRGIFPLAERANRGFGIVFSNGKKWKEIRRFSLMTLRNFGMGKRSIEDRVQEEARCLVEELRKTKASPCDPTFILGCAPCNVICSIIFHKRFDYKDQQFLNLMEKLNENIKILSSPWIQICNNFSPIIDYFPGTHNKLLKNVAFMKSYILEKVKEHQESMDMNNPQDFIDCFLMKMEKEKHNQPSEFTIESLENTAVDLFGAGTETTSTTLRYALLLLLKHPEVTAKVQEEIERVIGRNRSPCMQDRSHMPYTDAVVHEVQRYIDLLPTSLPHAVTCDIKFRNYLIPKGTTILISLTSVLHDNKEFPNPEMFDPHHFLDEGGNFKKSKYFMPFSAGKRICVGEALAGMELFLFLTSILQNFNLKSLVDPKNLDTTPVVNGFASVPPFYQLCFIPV
row,inhibition at 1 µM [%],SMILES
1,-14,O=C(NO)c1ccc(-c2ccc(CNCc3ccccc3)cn2)s1
2,0,O=C(NO)c1ccc(-c2ccn(CCNCc3ccc4c(c3)OCO4)n2)s1
3,28,O=C(CCCCCCC(=O)Nc1ccccc1)NO [VORINOSTAT]

# Target: T1, CYP1A2 (Homo sapiens, UniProt P05177)
# T1 sequence (P05177 whole entry): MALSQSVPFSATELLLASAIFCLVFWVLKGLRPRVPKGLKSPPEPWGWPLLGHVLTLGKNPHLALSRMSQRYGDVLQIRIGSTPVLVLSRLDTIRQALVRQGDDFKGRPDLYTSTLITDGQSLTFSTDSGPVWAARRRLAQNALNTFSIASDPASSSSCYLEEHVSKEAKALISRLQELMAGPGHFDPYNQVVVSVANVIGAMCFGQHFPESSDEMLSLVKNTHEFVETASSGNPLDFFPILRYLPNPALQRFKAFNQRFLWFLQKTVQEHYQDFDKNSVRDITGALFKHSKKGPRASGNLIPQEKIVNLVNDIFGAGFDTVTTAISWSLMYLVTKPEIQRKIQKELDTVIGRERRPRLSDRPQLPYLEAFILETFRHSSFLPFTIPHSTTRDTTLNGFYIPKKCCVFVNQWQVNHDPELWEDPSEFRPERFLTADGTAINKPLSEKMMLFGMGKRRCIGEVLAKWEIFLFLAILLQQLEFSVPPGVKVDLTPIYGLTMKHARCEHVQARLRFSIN
# Assay: Percent inhibition of CYP450 1A2 at 1 uM concentration
# Assay type: ADME
# Conditions: not given
row,inhibition at 1 µM [%],SMILES
1,17,O=C(NO)c1ccc(-c2ccc(CNCc3ccccc3)cn2)s1
2,9,O=C(NO)c1ccc(-c2ccn(CCNCc3ccc4c(c3)OCO4)n2)s1
3,14,O=C(CCCCCCC(=O)Nc1ccccc1)NO [VORINOSTAT]

# Tested on: not listed separately
# Assay: Microsome stability: percent compound remaining
# Assay type: ADME
# Conditions: human, microsomes
Percent remaining [%],%R [%],SMILES
88,,O=C(NO)c1ccc(-c2ccc(CNCc3ccccc3)cn2)s1
55,,O=C(NO)c1ccc(-c2ccn(CCNCc3ccc4c(c3)OCO4)n2)s1
,97,O=C(CCCCCCC(=O)Nc1ccccc1)NO [VORINOSTAT]

# Same assay, conditions: mouse, microsomes
Percent remaining [%],%R [%],SMILES
35,,O=C(NO)c1ccc(-c2ccc(CNCc3ccccc3)cn2)s1
5,,O=C(NO)c1ccc(-c2ccn(CCNCc3ccc4c(c3)OCO4)n2)s1
,114,O=C(CCCCCCC(=O)Nc1ccccc1)NO [VORINOSTAT]

# Tested on: MDA-MB-231
# Assay: cells
# Assay type: functional, cell-based
# Conditions: Homo sapiens
# Description: Inhibition of MDA-MB-231 cell proliferation (mean of two experiments)
row,IC50 [µM],SMILES
1,0.22,O=C(NO)c1ccc(-c2ccc(CNCc3ccccc3)cn2)s1

# Tested on: not listed separately
# Assay: Permeability (Papp) run from pH 6.5-7.4
# Assay type: ADME, cell-based
# Conditions: human, Caco-2, pH 6.5
row,Papp [×10⁻⁶ cm/s],SMILES
1,15.4,O=C(NO)c1ccc(-c2ccc(CNCc3ccccc3)cn2)s1
2,4.2,O=C(NO)c1ccc(-c2ccn(CCNCc3ccc4c(c3)OCO4)n2)s1
3,8,O=C(CCCCCCC(=O)Nc1ccccc1)NO [VORINOSTAT]

# Target: Cytochrome P450 3A4 (Homo sapiens, UniProt P08684)
# Assay: Inhibition of CYP450 3A4
# Assay type: ADME
# Conditions: not given
# Cytochrome P450 3A4, sequence (P08684 whole entry): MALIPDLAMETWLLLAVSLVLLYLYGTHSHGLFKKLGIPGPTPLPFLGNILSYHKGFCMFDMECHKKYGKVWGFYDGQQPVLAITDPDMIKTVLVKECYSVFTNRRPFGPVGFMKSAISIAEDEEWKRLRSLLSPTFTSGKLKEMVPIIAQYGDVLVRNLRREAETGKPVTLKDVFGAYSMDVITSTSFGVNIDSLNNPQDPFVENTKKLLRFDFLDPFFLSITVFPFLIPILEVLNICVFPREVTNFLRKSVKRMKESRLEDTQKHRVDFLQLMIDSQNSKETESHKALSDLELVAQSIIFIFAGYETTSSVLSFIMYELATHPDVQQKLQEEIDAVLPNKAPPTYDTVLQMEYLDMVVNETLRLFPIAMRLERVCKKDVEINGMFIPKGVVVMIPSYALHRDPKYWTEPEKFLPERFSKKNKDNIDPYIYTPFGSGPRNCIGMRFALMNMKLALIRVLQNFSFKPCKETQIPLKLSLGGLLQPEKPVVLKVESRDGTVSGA
row,IC50 [µM],SMILES
1,26,O=C(NO)c1ccc(-c2ccc(CNCc3ccccc3)cn2)s1
2,53,O=C(NO)c1ccc(-c2ccn(CCNCc3ccc4c(c3)OCO4)n2)s1

# Target: Histone deacetylase 1 (Homo sapiens, UniProt Q13547)
# Assay: Inhibition of HDAC activity measured by HDAC Fluorescent Activity Assay (mean of two experiments)
# Assay type: functional
# Conditions: not given
# Histone deacetylase 1, sequence (Q13547 whole entry): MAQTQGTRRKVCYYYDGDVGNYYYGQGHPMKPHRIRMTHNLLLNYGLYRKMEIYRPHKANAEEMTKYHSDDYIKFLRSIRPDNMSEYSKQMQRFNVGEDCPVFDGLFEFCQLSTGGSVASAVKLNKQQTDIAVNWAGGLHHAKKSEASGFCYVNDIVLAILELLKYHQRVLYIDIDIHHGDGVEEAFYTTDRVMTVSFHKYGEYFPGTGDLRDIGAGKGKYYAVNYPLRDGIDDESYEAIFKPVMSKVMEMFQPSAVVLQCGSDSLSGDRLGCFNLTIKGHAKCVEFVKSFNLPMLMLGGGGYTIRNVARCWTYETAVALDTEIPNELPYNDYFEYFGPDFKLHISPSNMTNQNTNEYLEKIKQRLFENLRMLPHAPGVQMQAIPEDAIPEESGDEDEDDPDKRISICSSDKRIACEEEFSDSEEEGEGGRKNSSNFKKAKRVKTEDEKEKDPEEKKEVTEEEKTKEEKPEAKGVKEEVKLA
row,IC50 [µM],SMILES
1,0.008,O=C(NO)c1ccc(-c2ccc(CNCCc3c[nH]c4ccccc34)cn2)s1
2,0.011,O=C(NO)c1ccc(-c2ccc(CNCc3ccc4c(c3)OCCO4)cn2)s1
3,0.008,O=C(NO)c1ccc(-c2ccc(CNCc3ccc4c(c3)OCO4)cn2)s1
4,0.016,O=C(NO)c1ccc(-c2ccc(CNCc3ccccc3)cn2)s1
5,0.012,O=C(NO)c1ccc(-c2ccc(CNCCc3ccccc3F)cn2)s1
6,0.009,O=C(NO)c1ccc(-c2ccc(CCNCc3ccc4c(c3)OCO4)cn2)s1
7,0.017,COc1ccccc1CCNCc1ccc(-c2ccc(C(=O)NO)s2)nc1

# Tested on: not listed separately
# Assay: Bioavailability after i.p. dosing at 5 mg kg-1
# Assay type: ADME, organism-based
# Conditions: mouse, in vivo, ip
row,bioavailability [%],SMILES
1,100,O=C(NO)c1ccc(-c2ccc(CNCc3ccccc3)cn2)s1
2,85,O=C(NO)c1ccc(-c2ccn(CCNCc3ccc4c(c3)OCO4)n2)s1
3,61,O=C(CCCCCCC(=O)Nc1ccccc1)NO [VORINOSTAT]

# Tested on: not listed separately
# Assay: (§2) Clearance after i.v. dosing at 1 mg kg-1
# Assay type: ADME, organism-based
# Parameters: dose 1 mg kg-1, route intravenous
# Conditions: mouse, in vivo, iv
row,clearance [mL/min/kg],SMILES
1,83,O=C(NO)c1ccc(-c2ccc(CNCc3ccccc3)cn2)s1
2,78,O=C(CCCCCCC(=O)Nc1ccccc1)NO [VORINOSTAT]

# Same assay, conditions: rat, in vivo, iv
row,clearance [mL/min/kg],SMILES
1,13,O=C(NO)c1ccc(-c2ccc(CNCc3ccccc3)cn2)s1
2,21,O=C(NO)c1ccc(-c2ccn(CCNCc3ccc4c(c3)OCO4)n2)s1
3,67,O=C(CCCCCCC(=O)Nc1ccccc1)NO [VORINOSTAT]

# Tested on: Mus musculus
# Assay: as §2
# Assay type: ADME, organism-based
# Parameters: dose 1 mg kg-1, route intravenous
# Conditions: in vivo, iv
row,CL [mL/min/kg],SMILES
1,10,O=C(NO)c1ccc(-c2ccn(CCNCc3ccc4c(c3)OCO4)n2)s1

# Tested on: not listed separately
# Assay: (§3) Oral bioavailability after oral dosing at 5 mg kg-1
# Assay type: ADME, organism-based
# Conditions: mouse, in vivo
row,bioavailability [%],SMILES
1,36,O=C(NO)c1ccc(-c2ccc(CNCc3ccccc3)cn2)s1
2,14,O=C(CCCCCCC(=O)Nc1ccccc1)NO [VORINOSTAT]

# Same assay, conditions: rat, in vivo
row,bioavailability [%],SMILES
1,50,O=C(NO)c1ccc(-c2ccc(CNCc3ccccc3)cn2)s1
2,2,O=C(NO)c1ccc(-c2ccn(CCNCc3ccc4c(c3)OCO4)n2)s1
3,16,O=C(CCCCCCC(=O)Nc1ccccc1)NO [VORINOSTAT]

# Tested on: Mus musculus
# Assay: as §3
# Assay type: ADME, organism-based
# Conditions: in vivo
row,F [%],SMILES
1,1,O=C(NO)c1ccc(-c2ccn(CCNCc3ccc4c(c3)OCO4)n2)s1

# Tested on: not listed separately
# Assay: Hepatocyte stability
# Assay type: ADME, cell-based
# Conditions: human, hepatocytes
row,Hepatocyte stability [uL/min/10e6 cells],SMILES
1,7,O=C(NO)c1ccc(-c2ccc(CNCc3ccccc3)cn2)s1
2,15,O=C(NO)c1ccc(-c2ccn(CCNCc3ccc4c(c3)OCO4)n2)s1
3,3,O=C(CCCCCCC(=O)Nc1ccccc1)NO [VORINOSTAT]

# Same assay, conditions: rat, hepatocytes
row,Hepatocyte stability [uL/min/10e6 cells],SMILES
1,27,O=C(NO)c1ccc(-c2ccc(CNCc3ccccc3)cn2)s1
2,26,O=C(NO)c1ccc(-c2ccn(CCNCc3ccc4c(c3)OCO4)n2)s1
3,12,O=C(CCCCCCC(=O)Nc1ccccc1)NO [VORINOSTAT]

# Target: CYP2C19 (Homo sapiens, UniProt P33261)
# Assay: Percent inhibition of CYP450 2C19 at 1 uM concentration
# Assay type: ADME
# Conditions: not given
# CYP2C19, sequence (P33261 whole entry): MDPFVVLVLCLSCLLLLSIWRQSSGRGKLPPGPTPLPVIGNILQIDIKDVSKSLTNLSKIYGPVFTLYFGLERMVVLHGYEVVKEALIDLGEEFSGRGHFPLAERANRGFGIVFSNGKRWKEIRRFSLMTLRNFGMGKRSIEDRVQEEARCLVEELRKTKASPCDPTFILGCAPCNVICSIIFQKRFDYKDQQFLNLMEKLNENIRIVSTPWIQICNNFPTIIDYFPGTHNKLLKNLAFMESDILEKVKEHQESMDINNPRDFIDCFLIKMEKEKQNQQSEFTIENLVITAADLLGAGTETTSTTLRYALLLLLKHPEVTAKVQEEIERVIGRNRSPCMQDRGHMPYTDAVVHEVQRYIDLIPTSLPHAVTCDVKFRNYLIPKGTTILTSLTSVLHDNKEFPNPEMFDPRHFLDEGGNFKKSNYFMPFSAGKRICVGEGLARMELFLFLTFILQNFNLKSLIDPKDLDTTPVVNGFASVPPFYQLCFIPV
row,inhibition at 1 µM [%],SMILES
1,-4,O=C(NO)c1ccc(-c2ccc(CNCc3ccccc3)cn2)s1
2,71,O=C(NO)c1ccc(-c2ccn(CCNCc3ccc4c(c3)OCO4)n2)s1
3,14,O=C(CCCCCCC(=O)Nc1ccccc1)NO [VORINOSTAT]

# Tested on: not listed separately
# Assay: Half life after i.v. dosing at 1 mg kg-1
# Assay type: ADME, organism-based
# Parameters: dose 1 mg kg-1, route intravenous
# Conditions: mouse, in vivo, iv
row,half-life [h],SMILES
1,0.17,O=C(NO)c1ccc(-c2ccc(CNCc3ccccc3)cn2)s1
2,2.5,O=C(NO)c1ccc(-c2ccn(CCNCc3ccc4c(c3)OCO4)n2)s1
3,0.8,O=C(CCCCCCC(=O)Nc1ccccc1)NO [VORINOSTAT]

# Same assay, conditions: rat, in vivo, iv
row,half-life [h],SMILES
1,2.7,O=C(NO)c1ccc(-c2ccc(CNCc3ccccc3)cn2)s1
2,1.6,O=C(NO)c1ccc(-c2ccn(CCNCc3ccc4c(c3)OCO4)n2)s1
3,0.7,O=C(CCCCCCC(=O)Nc1ccccc1)NO [VORINOSTAT]

# Tested on: not listed separately
# Assay: Steady state volume of distribution (Vdss) after i.v. dosing at 1 mg kg-1
# Assay type: ADME, organism-based
# Parameters: dose 1 mg kg-1, route intravenous
# Conditions: mouse, in vivo, iv, read-out: Vdss
row,Vd [L/kg],SMILES
1,1.1,O=C(NO)c1ccc(-c2ccc(CNCc3ccccc3)cn2)s1
2,0.4,O=C(NO)c1ccc(-c2ccn(CCNCc3ccc4c(c3)OCO4)n2)s1
3,2.1,O=C(CCCCCCC(=O)Nc1ccccc1)NO [VORINOSTAT]

# Same assay, conditions: rat, in vivo, iv, read-out: Vdss
row,Vd [L/kg],SMILES
1,2.9,O=C(NO)c1ccc(-c2ccc(CNCc3ccccc3)cn2)s1
2,0.9,O=C(NO)c1ccc(-c2ccn(CCNCc3ccc4c(c3)OCO4)n2)s1
3,1.6,O=C(CCCCCCC(=O)Nc1ccccc1)NO [VORINOSTAT]

# Tested on: MCF7
# Assay: Inhibition of MCF7 cell proliferation (mean of two experiments)
# Assay type: functional, cell-based
# Conditions: Homo sapiens
row,IC50 [µM],SMILES
1,0.12,O=C(NO)c1ccc(-c2ccc(CNCCc3c[nH]c4ccccc34)cn2)s1
2,0.05,O=C(NO)c1ccc(-c2ccc(CNCc3ccc4c(c3)OCCO4)cn2)s1
3,0.05,O=C(NO)c1ccc(-c2ccc(CNCc3ccc4c(c3)OCO4)cn2)s1
4,0.08,O=C(NO)c1ccc(-c2ccc(CNCc3ccccc3)cn2)s1
5,0.09,O=C(NO)c1ccc(-c2ccc(CNCCc3ccccc3F)cn2)s1
6,0.07,O=C(NO)c1ccc(-c2ccc(CCNCc3ccc4c(c3)OCO4)cn2)s1
7,0.06,COc1ccccc1CCNCc1ccc(-c2ccc(C(=O)NO)s2)nc1
